The source of these data is publication PMC6839601, “Discovery of selective, antimetastatic and anti-cancer stem cell metallohelices via post-assembly modification” (Chemical Science, 2019).

Bounds are passed on as bounds.

In experiment [1] the test system is HCT116 p53+/+ colon cancer cells. In words: Antiproliferative activity (MTT assay), HCT116 p53+/+. It is filed as cell-based, human. Particulars: cells treated for 96 h, mean ± SD, read-out: Cell viability IC50, HCT116 p53+/+ (colon). The text has this:
(§1) The human ovarian carcinoma cisplatin-sensitive A2780 cells, cisplatin-resistant A2780cisR (a cisplatin-resistant variant of A2780 cells), human cervical carcinoma HeLa cells, human breast cancer MCF-7 cells and human colorectal carcinoma cells HCT-116 (for experiments performed at the Czech Academy of Sciences) were kindly supplied by Professor B. Keppler, University of Vienna (Austria). Human colon carcinoma cells expressing p53 (HCT116 p53^+/+) were a kind gift of Dr M. Brazdova, Institute of Biophysics, Brno (Czech Republic). […] These solutions were removed, dimethyl sulfoxide was added to each well, and the absorbance at 540 nm was read using a Thermo Scientific Multiskan EX microplate photometer. The IC50 values were determined from a plot of percentage cell survival against drug concentration (in μM). All assays were conducted in triplicate and the mean IC50 ± standard deviation was determined. page 43: 8. […] Cell survival was determined as the absorbance of treated cells minus the blank cell media, divided by the absorbance of the untreated control; this value was expressed as a percentage. The IC50 values were determined from a plot of percentage cell survival against drug concentration (µM). All assays were conducted in triplicate and the mean IC50 ± standard deviation was determined. […]

Experiment [2] relates to A2780cisR (ovarian). In words: Antiproliferative activity (MTT assay), A2780cisR. It is filed as cell-based, human. Particulars: 72 h, mean ± SD, read-out: Cell viability IC50, A2780cisR (ovarian).
Description: as §1
For orientation: Tetrazolium dyes change colour on reduction, which living cells bring about.

Experiment [3] concerns MRC-5 pd30 (lung). In words: Antiproliferative activity (MTT assay), MRC-5 pd30. It is filed as cell-based, human. Particulars: 72 h, mean ± SD, read-out: Cell viability IC50, MRC-5 pd30 (lung).
Description: as §1

Experiment [4] has as its system HMF (breast). Briefly: Antiproliferative activity (MTT assay), HMF. Particulars: cells treated for 96 h, mean ± SD, read-out: Cell viability IC50, HMF (breast). It is filed as cell-based.
Description: as §1

The subject of experiment [5] is ARPE-19 (non-cancerous) cells. Briefly: Antiproliferative activity (MTT assay), ARPE-19. It is filed as cell-based, human. Particulars: cells treated for 96 h, mean ± SD, read-out: Cell viability IC50, ARPE-19 (retinal).
Description: as §1

The test system of experiment [6] is WI-38 (lung). In words: Antiproliferative activity (MTT assay), WI-38. It is filed as cell-based. Particulars: cells treated for 96 h, mean ± SD, read-out: Cell viability IC50, WI-38 (lung).
Description: as §1

Experiment [7] has as its system HCT116 p53-/- (colon). In words: Antiproliferative activity (MTT assay), HCT116 p53-/-. It is filed as cell-based, human.
Description: as §1

Regarding `N.N.[Cl][Pt][Cl]` [Cisplatin, cisplatin], the IC50 in experiment [1] stood at 3.3 ± 0.4 µM; in experiment [2], 20 ± 3 µM; in experiment [3], 12 ± 1 µM; in experiment [4], 18 ± 2 µM; in experiment [5], 6.4 ± 1 µM; in experiment [6], 2.2 ± 0.8 µM. For the same compound, the IC50 in experiment [7] (MTT, cells treated for 96 h, mean ± SD, read-out: Cell viability IC50, HCT116 p53-/- (colon)) turned out to be 7.5 ± 0.7 µM. In experiment [7] (HCT116 p53-/- vs p53+/+ (Table 1)), the “loss of activity towards HCT116 p53-/- cells relative to p53+/+ isogenic clones” value is on record as greater than 2 fold.
